For 25 molecules, TGI and GI50 results are on record in PubChem BioAssay (NCI).

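96-well plates; 48 h exposure; 5 concentrations. Endpoints by linear interpolation between flanking doses. Not reached: highest tested concentration assigned. GI50 is the concentration that inhibits growth by half. The concentration for full growth arrest is given as TGI.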

Experiment in all cases: inhibition of tumour cell growth, NCI panel, 48 h
Assay [1] has as its system SK-MEL-5 melanoma.
The subject of assay [2] is MOLT-4 leukemia.
Assay [3] has as its system SW-620 colon.
In assay [4] the test system is NCI-H226 lung.
For assay [5], the system named is HCC-2998 colon.
Assay [6] has as its system A549 NSCLC.
The test system of assay [7] is SN12C renal.
In assay [8] the test system is SK-OV-3 ovarian.
Assay [9] has as its system SF-268 CNS.
Assay [10] deals with CAKI-1 renal.

`O=C1NC2CCC(C2)C1c1ccccc1` (stereo not given): the TGI in [1], in assay [2], in assay [3], in [4], in [5] and in [6] was greater than 100 µM throughout. The TGI in assay [7], in [8] and in assay [9] was greater than 100 µM throughout.

`CN(C)CC/C(=N\Nc1ccccc1)c1ccccc1`: the TGI in assay [1] was 35.6 µM; in [2], greater than 100 µM; in assay [5], 58.9 µM; in assay [6], greater than 100 µM; in [8], 34.7 µM; in [10], 11.2 µM. This molecule yielded a TGI in assay [9] greater than 100 µM.

As for `CN1CCCCCC(=N\O)/C(=N/O)CCCCC1`, the TGI in assay [1], in assay [2], in [3], in assay [4], in assay [6] and in assay [7] was greater than 100 µM in each case. Further, the TGI in assay [10] and in assay [9] was greater than 100 µM each time.

On to `CCCN1CCN(c2ccc3nc(-c4ccc5nc(-c6cc(OC)ccc6OC)[nH]c5c4)[nH]c3c2)CC1`, for which the GI50 in assay [1] was 15.1 µM; in [2], 2.09 µM; in assay [3] it was 1.86 µM; in assay [4], 20.2 µM; in [5], 1.8 µM; in assay [6], 1.85 µM. In addition, the GI50 in assay [7] was 16.3 µM; in assay [10] it was 15.9 µM; in [9], 18.6 µM. In addition, the TGI was found to be 34.1 µM in assay [1]; 4.31 µM in assay [2]; 3.57 µM in [3]; 46 µM in assay [4]; 3.25 µM in assay [5]; 3.64 µM in assay [6]. The TGI in assay [7] is 32.8 µM; in assay [10] it was 30.7 µM; in [9] it was 43 µM.

For `COC(=O)C(=O)C(C#N)c1ccc(CC#N)cc1` (stereo not given), the TGI in assay [2], in assay [3], in [4], in assay [6], in [7] and in assay [8] was greater than 100 µM in each case. In addition, the TGI in [10] and in [9] was greater than 100 µM in each case.

As for `Cc1cc(C)nc(NS(=O)(=O)c2ccc(Nc3c4ccc(Cl)cc4nc4c(C(=O)Nc5ccc(S(=O)(=O)N=C(N)N)cc5)cccc34)cc2)n1`, the TGI in assay [2], in assay [5], in [7], in [8] and in assay [9] was greater than 100 µM throughout.

For the molecule `Cc1cc(N2CCCC2)nc(NC2CCCC(Nc3ccnc4cc(Cl)ccc34)C2)n1` (stereo not given), the GI50 is 1.69 µM in assay [1]; 0.478 µM in assay [2]; 1.27 µM in [3]; 1.91 µM in assay [4]; 1.12 µM in assay [5]; 1.86 µM in assay [8]. Further, the GI50 in assay [9] was 1.19 µM. The TGI in assay [1] stood at 3.09 µM; in assay [2] it was 3.13 µM; in [3], 3.25 µM; in [4], 3.92 µM; in assay [5], 2.68 µM; in [8] it was 3.49 µM. The molecule further gave a TGI in assay [9] of 3.46 µM.

For the molecule `Cc1ccc(NC(=O)CCC/C(CC(=O)c2ccc(Br)cc2)=N/NC(=O)CC#N)cc1`, the TGI in assay [1], in assay [2], in assay [3], in assay [4], in assay [5] and in assay [6] was greater than 100 µM each time. Besides, the TGI in assay [7] and in [9] was greater than 100 µM in each case.

In the case of `COc1ccc2c(c1)OC1=C(C(=O)OC1)C2c1cc(OC)c(OC)c(OC)c1` (stereo not given), the GI50 is 0.363 µM in [1]; 0.542 µM in [2]; 0.334 µM in assay [3]; 0.441 µM in assay [4]; 1.27 µM in [5]; 0.61 µM in assay [6]. In addition, the GI50 in [7] is 0.806 µM; in [8] it was 0.392 µM; in assay [9], 1.91 µM. Further, the TGI in assay [1] was 61.2 µM; in assay [2] it was greater than 47.2 µM; in assay [3], greater than 100 µM; in assay [4] it was 5.99 µM; in assay [5], greater than 100 µM; in assay [6], greater than 100 µM. In addition, the results for the TGI in [7], in assay [8] and in [9] were greater than 100 µM, greater than 49.5 µM and greater than 100 µM, respectively.

On to `CCCC(C)C[C@@H](C)CC(C)/C=C(\C)c1oc(=O)c(C)c(O)c1C` (stereo not given in full) (tested in a mixture with another compound), for which the TGI in assay [3] stood at 35.1 µM; in assay [4], 30.4 µM; in assay [5], 25.5 µM; in [6], 34 µM; in assay [7], 29.1 µM; in assay [10] it was 28.1 µM. In assay [9], this molecule gave a TGI of 33.5 µM.

Consider `O=C([O][Hg][CH2]C1COCC([CH2][Hg][O]C(=O)c2ccccc2)O1)c1ccccc1` (stereo not given), for which the GI50 in assay [1] is 11.9 µM; in [2] it was 2.96 µM; in assay [3], 1.54 µM; in assay [4], 20.8 µM; in [6], 12.6 µM; in [7], 7.68 µM. Moreover, the GI50 in assay [8] is 21.8 µM; in assay [10], 1.61 µM; in assay [9] it was 16.6 µM. For the same molecule, the TGI in assay [1] came out at 24.6 µM; in assay [2] it was 12.5 µM; in assay [3] it was 3.32 µM; in assay [4] it was 41.9 µM; in assay [6], 27.2 µM; in [7], 32.2 µM. The values for the TGI in assay [8], in assay [10] and in assay [9] were 43 µM, 3.21 µM and 30.7 µM, respectively.

On to `COC1OC(C)C(O)CC1OS(=O)(=O)c1ccc(C)cc1` (stereo not given), for which the TGI in assay [1], in assay [2], in [3], in assay [4], in assay [6] and in assay [7] was greater than 100 µM each time. The TGI in assay [8], in [10] and in [9] was greater than 100 µM throughout.

For `O=CN1N=C(c2ccc(Cl)cc2)CC1c1cccc(Nc2ccnc3cc(Cl)ccc23)c1` (stereo not given), the GI50 was 0.54 µM in [1]; 1.13 µM in assay [2]; 1.61 µM in assay [3]; 1.87 µM in [4]; 3.12 µM in assay [5]; 2.03 µM in assay [6]. The figures for the GI50 in assay [7], in [8] and in assay [9] were 3.99 µM, 2.9 µM and 2.73 µM, respectively. Also, the TGI was 1.93 µM in [1]; 11 µM in assay [2]; 24.2 µM in assay [3]; 57.7 µM in assay [4]; 35.3 µM in assay [5]; 94.2 µM in assay [6]. The TGI in assay [7], in assay [8] and in assay [9] was greater than 100 µM in each case.

Consider `CC[Si](CC)(CC)OC[C@]1([C@@H]2COC(C)(C)O2)CC=CC(=O)O1`, for which the GI50 in assay [1] is 19 µM; in [2], 31.7 µM; in [3] it was 39.1 µM; in assay [6], 30.4 µM; in assay [7], 31.1 µM; in [8], 59.9 µM. The figures for the GI50 in assay [10] and in assay [9] were 33.6 µM and 41.5 µM, respectively. Besides, the TGI in assay [1] was 40 µM; in assay [2], greater than 100 µM; in assay [3] it was greater than 100 µM; in assay [6], greater than 100 µM; in [7] it was greater than 100 µM; in assay [8], greater than 100 µM. Moreover, the TGI in [10] and in assay [9] was greater than 100 µM in each case.

With `CCc1nc(N)nc(C(=O)NCCNC(=O)c2nc(N)nc(CC)c2C)c1C`, the TGI in [1], in assay [2], in [3], in assay [4], in [5] and in assay [6] was greater than 100 µM in each case. Further, the TGI in [7], in assay [10] and in assay [9] was greater than 100 µM in each case.

Take `O=C([CH-]C(=O)c1ccccc1)c1ccccc1.O=C([CH-]C(=O)c1ccccc1)c1ccccc1.O=C([CH-]C(=O)c1ccccc1)c1ccccc1.[OH3+].[Y+3]`: the GI50 in assay [1] was 3.72 µM; in assay [2], 2.96 µM; in assay [3], 5.14 µM; in [5], 10.3 µM; in [6], 13.2 µM; in [7], 4.68 µM. For the same molecule, the GI50 in assay [8] is 11.2 µM; in assay [10], 5.68 µM; in assay [9], 4.8 µM. In addition, the TGI in assay [1] was found to be 13.9 µM; in assay [2] it was 20.5 µM; in [3], 22.8 µM; in assay [5] it was 25.8 µM; in assay [6] it was 38.9 µM; in [7] it was 26.7 µM. In addition, the TGI is 40 µM in [8], 26.8 µM in assay [10] and 31 µM in assay [9].

As for `COC(=O)C12CC3CC(C1)CC(C(=O)OC)(C3)C2`, the TGI in assay [1], in [2], in [3], in assay [5], in assay [6] and in assay [7] was greater than 100 µM each time. The TGI in assay [8], in [10] and in [9] was greater than 100 µM throughout.

Turning to `Cc1nc2cc(N)c(F)cc2[nH]1`, the TGI in [1], in assay [2], in [3], in [4], in assay [6] and in assay [7] was greater than 100 µM throughout. Besides, the TGI in assay [8], in assay [10] and in assay [9] was greater than 100 µM throughout.

`O=C1c2ccccc2C2(O)NC(=S)N(c3ccccc3)C12O` (stereo not given): the TGI in assay [2], in assay [3], in assay [5], in assay [6], in assay [8] and in [10] was greater than 100 µM in each case. In [9], this molecule gave a TGI greater than 100 µM.

Take `NC(=S)N/N=C(\C(=O)Nc1cccc([N+](=O)[O-])c1)c1nc2ccc([N+](=O)[O-])cc2[nH]c1=O`: the TGI in assay [1], in assay [2], in assay [3], in assay [4], in [5] and in assay [6] was greater than 100 µM throughout. The TGI in assay [8] and in [9] was greater than 100 µM in each case.

Take `O=c1ccnc2c1ccc1[nH]cccc12`: the TGI in assay [1], in assay [2], in [3], in [4], in assay [5] and in assay [6] was greater than 100 µM each time. Further, the TGI in assay [7], in [8] and in [9] was greater than 100 µM each time.

Consider `COc1ccc2cc3[n+](cc2c1OC)CCc1cc(O)c(O)cc1-3`, for which the TGI in assay [1], in [2], in assay [3], in assay [4], in assay [6] and in [7] was greater than 100 µM each time. Further, the TGI in assay [8], in assay [10] and in assay [9] was greater than 100 µM each time.

As for `Cc1ccc(NC(=O)CC(=O)n2nc(-c3ccccc3)c(N=Nc3ccccc3Cl)c2-c2ccccc2)cc1`, the TGI in assay [1], in assay [2], in assay [3], in assay [5], in assay [6] and in assay [7] was greater than 100 µM each time. Besides, the TGI in assay [8] is 60.5 µM; in [10], greater than 100 µM; in [9] it was greater than 100 µM. The GI50 in [2], in [5], in assay [7] and in assay [9] was greater than 100 µM each time.

With `O=C(O)CC12C3C4C5C3C1C5C42` (stereo not given), the TGI in assay [1], in assay [2], in [3], in assay [5], in [6] and in assay [7] was greater than 100 µM each time. The TGI in assay [8], in assay [10] and in assay [9] was greater than 100 µM throughout.

Regarding `COC(=O)C12CC(c3ccccc31)C1C(=O)OC(=O)C12` (stereo not given), the TGI in [1], in [2], in assay [3], in assay [5], in assay [6] and in assay [7] was greater than 100 µM in each case. In [9], this molecule displayed a TGI greater than 100 µM.
